Measured values reported in US8530434B2, “Nitroxide free radical synergized antineoplastic agents” (The Trustees of California State University, priority 2006, dated 2013).
“Also recorded” adds a separate entry of the source.

Columns and labels:
[1] = test system: MCF-7, human breast cancer cells and KB, human liver cancer cells; assay: LDH measurement of cytotoxicity; conditions: for % cytotoxicity: LDH assay, 72 hours incubation, same conditions and same concentrations, rank among the four treatments, cell line not specified
Description: MCF-7, human breast cancer cells and KB, human liver cancer cells were maintained in an RPMI 1640 medium, which was supplemented with 10% (v/v) heat-inactivated FBS and 1% (v/v) penicillin-streptomycin (100 U/mL penicillin G and 100 μg/mL streptomycin). The cells were incubated and then allowed to grow into a monolayer at a Petri dish at 37° C. in 5% CO2 and 90% relative humidity. The cells were detached by trypsinisation. Specifically, to detach the monolayer of cells, the medium was removed from the cell culture dish and the cells were washed by PBS buffer solution. Then 1 mL of the enzyme of trypsin was transferred to the cell dish and then the dish was incubated for 3 min. After the incubation, we transferred 4 mL of the RPMI 1640 medium to the cell dish and pipetted the cell suspension up and down to mix them well. The cell suspension was examined by inverted phase contrast microscope to make sure cells were separated into a single cell suspension. We transferred the cell suspension to a 10 mL-tube and centrifuged it to separate cell pellet from the medium. The cells were washed twice in the RPMI 1640 medium by centrifugation at 300×g for 5 min, and then the washed cells were re-suspended in 10 mL of medium. Cell number and viability were determined by using a dye of trypan blue, a special counting chamber, the hemocytometer and microscope. The cell density was calculated by the formula, cell concentration=(N1+N2+N3+N4+N5)×4×10^3 cells/mL, where N1 to N5 denote the counting numbers in the chamber. The cell suspension was diluted to a final concentration of 100,000 cells/mL in the RPMI 1640 medium.
The cells were initially seeded in a 96-well plate with a cell density of 10,000 cells per well by transferring 100 μL of 100,000 cells/mL suspension to each well using a multi-pipette. The 96-well plate was incubated for 24 hours at 37° C. in a humidified, 5% CO2 atmosphere. After incubation of 24 h, the growth medium was removed and replaced with 100 μL of fresh medium with different concentrations of drugs in 3 repeats.
Performed serial two-fold dilution from Row H to Row A. Use extra column as the negative control containing 100 μL of the medium and cells only. Before the drug solutions were administered, removed the growth medium from each well and then replace 100 μL of each drug solution. Each concentration had 3 repeats. Incubate the plate for 72 hours.
10 μl of Lysis Solution was added from row A to H, and incubated for 45 minutes in a humidified chamber at 37° C., under 5% CO2.
50 μl supernatant was transferred from all wells to a fresh 96-well flat bottom enzymatic assay plate. […] 50 μl Stop Solution was added to each well, and the absorbances were recorded at a wavelength of 490 nm within one hour after adding the stop solution.

[2] = test system: short single strand DNA units comprising of 3′-ATCGT-5′; assay: 1H and 31P NMR study of interaction with short single strand DNA; format: binding; conditions: 1:1 molar ratio with DNA in DMSO-d6, 600 MHz NMR
Text: (§1) We did the ^1H and ^31P NMR experiments at a 600 MHz NMR spectrometer for all three samples.

[3] = Solubility in D2O (sample preparation for NMR)
Text: as §1

Compound | % cytotoxicity [1] | interaction with DNA (changes of 1H and 31P NMR spectra) [2] | potency compared with co-administration of the two drugs ([1]; summary statement) | solubility in D2O [3]
CC1(C)CC(O)CC(C)(C)N1[O] [TEMPOL, 4-hydroxy-2,2,6,6-tetramethylpiperidine-N-oxyl] | the least; also recorded: very low % cytotoxicity | interacts with DNA | – | –
CC1(C)CC(OC(=O)CCCc2ccc(N(CCCl)CCCl)cc2)CC(C)(C)N1[O] [chlorambucil-TEMPOL adduct] | the most % cytotoxicity | interact with the DNA collaboratively | higher potency than mere co-administration of the two drugs | weakly soluble
O=C(O)CCCc1ccc(N(CCCl)CCCl)cc1 [chlorambucil] | the third | interaction of the alkylating agent with DNA | – | weakly soluble
